The values below come from paper PMC10671052, “Naphthyl-Substituted Indole and Pyrrole Carboxylic Acids as Effective Antibiotic Potentiators—Inhibitors of Bacterial Cystathionine γ-Lyase” (International Journal of Molecular Sciences, 2023).

This data set can be described thus: physchem. In kind it is physicochemical. The conditions noted are these: 25 °C, pH 7.4, aqueous buffer, kinetic from dmso stock, Solubility. The method, then:
A stock solution of a compound (10 mM in DMSO, 10 μL) was added to 990 μL of 100 mM sodium phosphate buffer (pH 7.4) and incubated at 25 °C for 2 h with constant shaking. The suspension was filtered through the PVDF membrane filter (Merck Millipore, Burlington, MA, USA). To 320 µL of the filtrate, 80 µL of acetonitrile was added and mixed. The mixture was transferred to a vial and analyzed by ultra-high-performance liquid chromatography (UHPLC) with UV detection. Concentrations were calculated from a 5-point calibration curve. The calibration range was 1 to 100 μM. The controls were diclofenac and nicardipine. All compounds were tested in triplicate.

The solubility is the concentration that dissolves in the medium under given conditions. Read a high solubility as a readily soluble substance. For the molecule `O=C(O)c1cc2ccccc2n1Cc1cccc2ccccc12` [Compound 2a], the solubility at 2 h is greater than 100 µM.
